Experimental data as given in patent US20260327242A1, “Platform and Scaffold for FAP Targeting Agents” (Erasmus University Medical Center Rotterdam, priority 2022, published 2026).
Blank lines part the entries; values can stand above or below the compound they belong to.

Legend:
[1] = vis-à-vis FAPI-04; cited from earlier work
FAP [2] = settings: cited from earlier work
FAP [3] = biological target: T1, FAP (Homo sapiens, UniProt Q12884); assay: Competitive binding assay against [^111In]In-FAPI-46 in HT-1080.hFAP cells; settings: 37° C., 1 h
T1 construct: expressed in transfected cells; host or cells: HT-1080.hFAP
T1 sequence (Q12884 1-760): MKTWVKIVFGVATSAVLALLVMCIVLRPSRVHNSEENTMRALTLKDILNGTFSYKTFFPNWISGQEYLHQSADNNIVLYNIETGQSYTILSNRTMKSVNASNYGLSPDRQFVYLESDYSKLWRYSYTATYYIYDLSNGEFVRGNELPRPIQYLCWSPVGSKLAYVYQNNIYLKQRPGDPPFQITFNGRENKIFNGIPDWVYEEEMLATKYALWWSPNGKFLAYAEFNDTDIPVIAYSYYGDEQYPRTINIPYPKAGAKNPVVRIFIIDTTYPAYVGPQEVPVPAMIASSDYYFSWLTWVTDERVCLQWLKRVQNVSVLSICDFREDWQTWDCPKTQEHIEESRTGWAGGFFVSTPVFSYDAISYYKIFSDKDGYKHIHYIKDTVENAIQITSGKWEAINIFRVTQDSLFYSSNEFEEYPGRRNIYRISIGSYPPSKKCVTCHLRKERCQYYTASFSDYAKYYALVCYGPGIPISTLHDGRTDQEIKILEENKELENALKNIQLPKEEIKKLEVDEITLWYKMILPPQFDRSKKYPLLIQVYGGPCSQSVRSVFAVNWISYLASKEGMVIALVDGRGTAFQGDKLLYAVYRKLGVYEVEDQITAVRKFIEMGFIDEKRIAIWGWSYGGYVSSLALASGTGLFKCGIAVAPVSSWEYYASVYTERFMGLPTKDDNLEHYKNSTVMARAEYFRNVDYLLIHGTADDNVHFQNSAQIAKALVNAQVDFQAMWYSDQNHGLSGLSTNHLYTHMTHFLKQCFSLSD
Experimental: The U-87 MG glioblastoma was cultured at 37° C. and 5% CO2 in Dulbecco's Modified Eagle Medium (DMEM) supplemented with 10% (v/v) fetal calf serum. HT-1080.hFAP cells were kept in culture in DMEM medium supplemented with fetal bovine serum (10%, FBS) and antibiotic antimycotic (1%, AA) at 37° C. and 5% CO2. For passaging, cells were detached using Trypsin-EDTA 0.05% when reaching 90% confluence and re-seeded at a dilution of 1:4.
Competition binding experiments were conducted by incubation of the [^111In]In-FAPI-46 radioligand with increasing concentrations of eFAP compound in HT-1080.hFAP cells at 37° C. for 1 h. Cells were then washed three times with binding buffer and lysed. The cell-associated radioactivity was measured in a γ-counter. The IC50 values were calculated by fitting the data by non-linear regression using GraphPad Prism.
Results with FABI-46 obtained in the same assay is included for comparison.

mouse FAP (mFAP) = biological target: T2, mouse FAP (mFAP) (Mus musculus, UniProt P97321); assay: In vitro inhibition assay on mouse FAP (Z-GP-AMC substrate); type: biochemical; settings: 20 μM Z-GP-AMC, 20 nM FAP, pH 7.4, room temperature
T2 sequence (P97321 26-761 limits assumed): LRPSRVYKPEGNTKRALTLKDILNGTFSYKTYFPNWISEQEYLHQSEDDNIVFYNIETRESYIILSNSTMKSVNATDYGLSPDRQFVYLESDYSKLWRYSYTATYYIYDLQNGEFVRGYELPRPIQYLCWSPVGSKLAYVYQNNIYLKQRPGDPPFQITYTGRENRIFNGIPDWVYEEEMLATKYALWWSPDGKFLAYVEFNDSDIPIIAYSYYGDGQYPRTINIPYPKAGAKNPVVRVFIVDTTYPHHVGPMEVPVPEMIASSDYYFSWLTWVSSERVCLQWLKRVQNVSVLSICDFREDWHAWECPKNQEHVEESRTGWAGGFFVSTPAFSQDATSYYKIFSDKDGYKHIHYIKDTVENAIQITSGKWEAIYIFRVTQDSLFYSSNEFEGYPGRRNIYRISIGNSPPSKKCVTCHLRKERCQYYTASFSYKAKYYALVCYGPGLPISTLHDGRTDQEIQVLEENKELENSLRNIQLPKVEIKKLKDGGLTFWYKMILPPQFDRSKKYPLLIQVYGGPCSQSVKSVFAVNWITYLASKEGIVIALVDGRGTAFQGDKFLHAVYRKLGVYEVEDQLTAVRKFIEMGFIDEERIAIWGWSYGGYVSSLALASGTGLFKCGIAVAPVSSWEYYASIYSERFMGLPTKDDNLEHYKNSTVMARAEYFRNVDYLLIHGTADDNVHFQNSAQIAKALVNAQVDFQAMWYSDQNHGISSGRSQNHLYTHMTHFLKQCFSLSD
Experimental: (§1) Enzymatic activity of human FAP (hFAP) and mouse FAP (mFAP) on the Z-GP-AMC substrate was measured at room temperature on a Hidex microplate reader by monitoring the fluorescence at an excitation wavelength of 360 nm and an emission wavelength of 465 nm. The reaction mixture contained 20 μM substrate, 20 nM FAP, assay buffer (50 mM Tris, 100 mM NaCl, 1 mM EDTA, pH 7.4) and tested compound (serial dilution from 10-6 to 10^−12) in a total volume of 50 μL.
Results with FAPI-46 obtained in the same assay is included for comparison.

U-87 tumor = assay: Near-infrared fluorescence imaging of U-87 tumor bearing mice; type: in vivo, mouse; settings: 2 nmol i.v., imaging 1 h, excised tumors 2.5 h
Description: Six-week-old male Balb/c nu/nu-specific and opportunistic pathogen-tree (SOPF) mice were housed in individually ventilated cages, with 4 mice per cage. Upon arrival, mice were acclimated for 1 week, with access to food and water ad libitum. Mice were subcutaneously inoculated on the right shoulder with U-87 or HT-1080.hFAP cells (1×10^6 cells). Xenografts were allowed to grow until they reached an appropriate size at the start of the studies. All animal experiments were approved by the Animal Welfare Committee of the Erasmus MC and were conducted in agreement with institutional guidelines (license number: AVD101002017867).
Evaluation of targeting performance of eFAP-17 in near-infrared fluorescence imaging of U-87 tumor bearing mice after intravenous injection of 2 nmol of the probe are given in FIG. 9 showing A) NIRF imaging of U-87 tumor bearing mice at 1 h after intravenous injection of 2 nmol of CW800 (left, negative control) or eFAP-17 (right) and B) image of excised tumors 2.5 h post administration of CW800 (left) or eFAP-17 (right).

human FAP (hFAP) = biological target: T3, human FAP (hFAP) (Homo sapiens, UniProt Q12884); assay: In vitro inhibition assay on human FAP (Z-GP-AMC substrate); type: biochemical; settings: 20 μM Z-GP-AMC, 20 nM FAP, pH 7.4, room temperature
T3 sequence (Q12884 26-760 limits assumed): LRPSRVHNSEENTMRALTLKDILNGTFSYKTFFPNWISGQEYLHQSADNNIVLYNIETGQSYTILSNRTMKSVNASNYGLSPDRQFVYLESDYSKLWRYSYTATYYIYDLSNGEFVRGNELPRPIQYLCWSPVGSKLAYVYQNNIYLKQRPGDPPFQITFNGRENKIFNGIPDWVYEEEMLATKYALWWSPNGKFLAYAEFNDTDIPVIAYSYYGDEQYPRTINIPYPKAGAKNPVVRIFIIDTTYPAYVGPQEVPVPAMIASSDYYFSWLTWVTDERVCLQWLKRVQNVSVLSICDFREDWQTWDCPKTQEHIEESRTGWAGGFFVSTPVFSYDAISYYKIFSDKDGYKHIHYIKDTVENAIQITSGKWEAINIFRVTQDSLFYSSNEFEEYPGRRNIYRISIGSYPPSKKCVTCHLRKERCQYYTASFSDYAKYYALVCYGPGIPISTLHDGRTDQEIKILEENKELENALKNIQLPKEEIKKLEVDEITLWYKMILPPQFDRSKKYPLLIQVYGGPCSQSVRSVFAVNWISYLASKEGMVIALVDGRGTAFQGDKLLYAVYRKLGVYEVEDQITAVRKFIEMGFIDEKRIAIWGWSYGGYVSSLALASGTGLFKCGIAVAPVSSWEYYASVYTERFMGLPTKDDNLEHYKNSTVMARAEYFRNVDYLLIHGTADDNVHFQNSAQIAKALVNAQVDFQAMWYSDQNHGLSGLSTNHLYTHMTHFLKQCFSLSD
Experimental: as §1

U-87 cells = assay: Cytotoxicity assay in FAP+ U-87 cells (resazurin); type: cell-based; settings: Homo sapiens, U-87 MG; read-out: cell viability
Experimental: In 96-well plates, U-87 cells (3×10^3) were seeded in each well and incubated at 37° C. and 5% CO2 for 24 h. The medium was removed and the wells were washed once with PBS. The cytotoxic drug (positive control) or the eFAP conjugate containing the drug were prepared at various concentrations (i.e., 1, 10, 100, 1000 nM) in DMEM culture medium, supplemented with 2 mM L-glutamine, 10% FBS, 50 units/mL penicillin, and 50 μg/mL streptomycin. Medium was used as a negative control. Cells were incubated with 100 μL of the tested compounds for 1, 24, 48, and 72 h. After incubation, medium was removed and each well was washed once with PBS. Next, 100 μL of 10% resazurin solution in culture medium was added to each well and incubated for 2.5 h. Fluorescence measurements were carried out using a microplate reader at 544 nm excitation and 590 nm emission.

SMILES: CN(CCCN1CCN(C(=O)CN2CCN(CC(=O)O)CCN(CC(=O)O)CCN(CC(=O)O)CC2)CC1)c1ccc2nccc(C(=O)NCC(=O)N3CC(F)(F)C[C@H]3C#N)c2c1 [FAPI-46]
tumor-to-organ ratios (in words) [1]: improved tumor-to-organ ratios

SMILES: N#C[C@@H]1CC(F)(F)CN1C(=O)CNC(=O)c1ccnc2ccccc12 [UAMC-1110]
affinity to FAP (in words) (FAP [2]): nanomolar affinity to FAP

binding affinity for FAP (in words) (FAP [3]): low nano-molar binding affinity for FAP
SMILES: N#C[C@@H]1CC(F)(F)CN1C(=O)CNC(=O)c1ccnc2c(OCCCNC(=O)CN3CCN(CC(=O)O)CCN(CC(=O)O)CCN(CC(=O)O)CC3)cccc12 [eFAP-6, (S)-2,2′,2″-(10-(2-((3-((4-((2-(2-Cyano-4,4-difluoropyrrolidin-1-yl)-2-oxoethyl)carbamoyl)quinolin-8-yl)oxy)propyl)amino)-2-oxoethyl)-1,4,7,10-tetraazacyclododecane-1,4,7-triyl)triacetic acid]

IC50 (mouse FAP (mFAP)): 5 ± 0.2 nM
accumulation in healthy tissues, NIRF imaging (in words) (U-87 tumor): low accumulation in healthy tissues
SMILES: CC1(C)C(/C=C/C2=C(Oc3ccc(S(=O)(=O)O)cc3)C(=C/C=C3/N(CCCCCC(=O)NCCCOc4cccc5c(C(=O)NCC(=O)N6CC(F)(F)C[C@H]6C#N)ccnc45)c4ccc(S(=O)(=O)O)cc4C3(C)C)/CCC2)=[N+](CCCCS(=O)(=O)[O-])c2ccc(S(=O)(=O)O)cc21 [eFAP-17, 4-(2-((E)-2-((E)-3-(2-((E)-1-(6-((3-((4-((2-((S)-2-Cyano-4,4-difluoropyrrolidin-1-yl)-2-oxoethyl)carbamoyl)quinolin-8-yl)oxy)propyl)amino)-6-oxohexyl)-3,3-dimethyl-5-sulfoindolin-2-ylidene)ethylidene)-2-(4-sulfophenoxy)cyclohex-1-en-1-yl)vinyl)-3,3-dimethyl-5-sulfo-3H-indol-1-ium-1-yl)butane-1-sulfonate]
tumor uptake, NIRF imaging (in words) (U-87 tumor): high uptake in the FAP overexpressing tumor

SMILES: COc1cc2cc(c1Cl)N(C)C(=O)CC(OC(=O)C(C)N(C)C(=O)CCSSCCC(=O)NCCCOc1cccc3c(C(=O)NCC(=O)N4CC(F)(F)CC4C#N)ccnc13)C1(C)OC1C(C)C1CC(O)(NC(=O)O1)C(OC)C=CC=C(C)C2 [eFAP-18, (1^4S,1^6S,3^2S,3^3S,2R,4S,10E,12E,14R)-8^6-chloro-1^4-hydroxy-8^5,14-dimethoxy-3^3,2,7,10-tetramethyl-1^2,6-dioxo-7-aza-1(6,4)-oxazinana-3(2,3)-oxirana-8(1,3)-benzenacyclotetradecaphane-10,12-dien-4-yl N-(3-((3-((3-((4-((2-((S)-2-cyano-4,4-difluoropyrrolidin-1-yl)-2-oxoethyl)carbamoyl)quinolin-8-yl)oxy)propyl)amino)-3-oxopropyl)disulfaneyl)propanoyl)-N-methyl-L-alaninate]
IC50 (human FAP (hFAP)): 2.6 ± 0.8 nM
IC50 (mouse FAP (mFAP)): 2 ± 0.1 nM
viability at 1 µM (U-87 cells): ~25%
